# Reference: ChEMBL document CHEMBL1150105, “Polytolypin, a new antifungal triterpenoid from the coprophilous fungus Polytolypa hystricis” (1995)
# The source made the active and inactive calls. The calls are words filed in the database; no cut-off is given here.
# What was measured:
# [1] = tested on: Ascobolus; test: Antifungal activity against Ascobolus furfuraceus NRRL 6460 at 100 ug/disk by standard disk assay; assay type: functional
# [2] = tested on: Candida albicans; test: Antifungal activity against Candida albicans ATCC 14053 at 80 ug /disk by standard disk assay; assay type: functional; conditions: read-out: IZ
Compound,inhibition at 100 µg/disc [1],Activity [1],zone of inhibition at 80 µg/disc [2]
CC(=O)CC1(O)C(=O)c2cc3c(c4c(C)cc(O)c(c24)C1=O)OC(C)C3(C)C (centres undefined),47%,–,–
Cc1cc(O)c2c3c(cc4c(c13)OC(C)C4(C)C)C(=O)/C(=N\C1C(=O)c3cc4c(c5c(C)cc(O)c(c35)C1=O)OC(C)C4(C)C)C2=O (centres undefined),–,inactive,–
CC(C)[C@H]1CC[C@@H]2[C@]1(C)CC[C@]1(C)C3=CC[C@H]4[C@](C)(C(=O)O)[C@@H](O)[C@H](O)[C@@H](O)[C@]4(C(=O)O)[C@H]3CC[C@@]21C [POLYTOLYPIN],47%,–,11 mm
